In patent US20060172993A1 (priority 2002, published 2006):
Marks after values point to notes of the source that are not given here.

What was measured:
humans = details: cited from earlier work
[1] = system: Patients diagnosed with Alzheimer's Disease; experiment: ADAS-cog/11 cognitive subscale, 5-month placebo-controlled trial; type: in vivo, human; details: for ADAS-cog/11 responders, change ≦ 0 points, % / ADAS-cog/11 responders, change ≦ −4 points, % / ADAS-cog/11 responders, change ≦ −7 points, % / ADAS-cog/11 responders, change ≦ −10 points, %: Month 5
Description: Subjects in the Placebo group received 21 weeks (5 months) of placebo medication.
The ADAS consists of two parts—a cognitive subscale and a behavioral subscale. The behavioral subscale was not be used in this study. The cognitive subscale, the ADAS--cog-11, consisted of Word Recall and Word Recognition memory tests, Object and Finger Naming, Commands, Constructional Praxis, Ideational Praxis, Orientation, Remembering Test Instructions, Spoken language Ability, Comprehension of Spoken language and Word Finding Difficulty was the primary variable in this study.
The ADAS was performed at visits 1, 2, 3, 4 and 5 (screening, baseline, week 4, week 13 and month 5 or upon early discontinuation of trial medication intake). For word recall and word recognition two parallel wordlists, list A and list B were employed. List A was used at visits 1 and 3, List B at visits 2, 4, and 5 or upon early discontinuation of trial medication intake. For practical reasons the words for word recognition was presented only once. The total score of the 11 cognitive items on the original ADAS cognitive subscale (ADAS-cog/11, Range: 0-70) was recorded.
Between treatment groups comparisons (with particular focus on differences from placebo) were done at each scheduled time interval and for each endpoint imputation scheme. These comparisons will be based on the change from baseline scores for efficacy parameters with baseline (e.g., ADAS-cog/11) and the original scored for efficacy parameters without baseline e.g., CIBIC-plus).
For continuous data, a two-way analysis of variance (ANOVA) model with treatment and investigator as factors were used to compare the treatment groups for the change from baseline data. The interaction between treatment and investigator was examined. The impact of the baseline score on change from baseline was evaluated. […] If the parametric methods were deemed inappropriate (normality assumption violated), nonparametric methods such as two-way ANOVA on ranked data, Van Elteren test, controlling for investigator, was used. Following ANOVA, Fisher's LSD procedure was used for pairwise comparisons between each galanthamine group and the placebo group. A linear contrast on the main effect for treatment was used to test the dose response relationship.

[2] = system: Patients diagnosed with Alzheimer's Disease; experiment: Discontinuation of trial medication; type: in vivo, human

COc1ccc2c3c1O[C@H]1C[C@@H](O)C=C[C@@]31CCN(C)C2 [GAL, galantamine]
Passing the blood-brain barrier (humans; humans): capable of passing the blood-brain barrier in humans | Side effects (humans; therapeutically effective dosages): no severe side effects | Change from baseline in ADAS-cog/11 at Month 5, Mean ([1]; 8 mg/day, LOCF): 0.4 | ADAS-cog/11 responders, change ≦ 0 points, % ([1]; 8 mg/day): (46.5) % | ADAS-cog/11 responders, change ≦ −4 points, % ([1]; 8 mg/day): (25.7) % | ADAS-cog/11 responders, change ≦ −7 points, % ([1]; 8 mg/day): (13.9) % | ADAS-cog/11 responders, change ≦ −10 points, % ([1]; 8 mg/day): (5.9) % | Change from baseline in ADAS-cog/11 at Month 5, Mean ([1]; 8 mg/day, observed case): 0.1 | Change from baseline in ADAS-cog/11 at Month 5, Mean ([1]; 16 mg/day, LOCF): −1.4 | ADAS-cog/11 responders, change ≦ 0 points, % ([1]; 16 mg/day): (65.4)***^‡ % | ADAS-cog/11 responders, change ≦ −4 points, % ([1]; 16 mg/day): (35.6)***♦ % | ADAS-cog/11 responders, change ≦ −7 points, % ([1]; 16 mg/day): (15.9)** % | ADAS-cog/11 responders, change ≦ −10 points, % ([1]; 16 mg/day): (7.2) % | ADAS-cog/11 responders, change ≦ −7 points, % ([1]; 16 mg/day, listed as galantamine): 15.9% | Change from baseline in ADAS-cog/11 at Month 5, Mean ([1]; 16 mg/day, observed case): −1.5 | Change from baseline in ADAS-cog/11 at Month 5, Mean ([1]; 24 mg/day, LOCF): −1.4 | ADAS-cog/11 responders, change ≦ 0 points, % ([1]; 24 mg/day): (64.9)***^‡ % | ADAS-cog/11 responders, change ≦ −4 points, % ([1]; 24 mg/day): (37.0)***^† % | ADAS-cog/11 responders, change ≦ −7 points, % ([1]; 24 mg/day): (22.3)***♦♦ % | ADAS-cog/11 responders, change ≦ −10 points, % ([1]; 24 mg/day): (10.4)** % | ADAS-cog/11 responders, change ≦ −7 points, % ([1]; 24 mg/day, listed as galantamine): 22.3% | Change from baseline in ADAS-cog/11 at Month 5, Mean ([1]; 24 mg/day, observed case): −1.8 | DC due to adverse event, % ([2]; 8 mg/day): 6% | Total discontinued (DC), % ([2]; 8 mg/day): 23% | DC due to adverse event, % ([2]; 16 mg/day): 7% | Total discontinued (DC), % ([2]; 16 mg/day): 22% | DC due to adverse event, % ([2]; 24 mg/day): 10% | Total discontinued (DC), % ([2]; 24 mg/day): 22%
